# Laboratory results as given in patent US11572532B2, “Antimicrobial composition” (The Procter & Gamble Company, priority 2019, dated 2023).
# Where a name gives a salt, the structure may show the parent alone.
# Columns and labels:
# [1] = pH measurement on the neat composition; type: physicochemical; details: composition of 0.5% MEA + 1.5% TEA with 50 ppm of the active; 25° C.
# Method: The pH is measured on the neat composition, at 25° C., using a pH meter with compatible gel-filled pH probe (such as Sartarius PT-10P meter with Toledo probe part number 52 000 100), calibrated according to the instruction manual.
# [2] = tested on: Staphylococcus aureus (S.aureus—ATCC #6538); assay: Minimum Biocidal Concentration (MBC) in suspension; type: cell-based; details: active in 0.5% MEA + 1.5% TEA alkaline composition, no horse serum, contact time 6 minutes; for MBC: Staphylococcus aureus, ATCC6538, 0.1 h, read-out: MBC (ppm) S. aureus
# Method: (§1) B) Antibacterial Efficacy (Minimum Biocidal Concentration in Suspension):
# (§2) The antimicrobial efficacy of the antimicrobial agent in the composition is determined by measuring its Minimum Biocidal Concentration (MBC). The MBC is defined as the lowest absolute concentration of the particular antimicrobial active which provides complete kill (zero bacterial growth).
# (§3) The antimicrobial agent was added to the composition at a level of 1000 ppm, or 500 ppm, or 200 ppm, or 100 ppm or 50 ppm, depending on what the Minimum Biocidal Concentration (MBC) is. 200 μL of the antimicrobial hard surface cleaning composition was dosed into one well of row A of a 96 well microtiter plate. Each subsequent well (rows B to G) were dosed with 100 μL of the same hard surface cleaning composition, without the addition of the antimicrobial agent. 100 μL of the antimicrobial hard surface cleaning composition was transferred from row A to row B and mixed. 100 μL of the composition was then transferred from row B to row C and mixed, and the process repeated to row G. As such, the concentration of the antimicrobial agent underwent two-fold dilution in adjacent wells, while the concentration of the other actives in the hard surface cleaning composition remained constant across all the wells in the same column.
# (§4) 10 μL of the 10^8CFU/ml bacteria suspension in saline was added to wells A to F of the microtiter plate with row G kept as a nil bacteria control. The final volume in each well was 110 μL, except for row G which comprised 100 μL of the hard surface cleaning composition and no bacteria suspension. Bacterial inoculation to each column was staggered by 30 seconds to allow for equal incubation times in all wells so that the contact time between the bacteria and the antimicrobial active for all samples was 6 mins. After this contact time, 10 μL of each test solution was transferred to 90 μL of neutralizer solution (Modified Letheen Broth +1.5% Polysorbate 80, supplied by BioMérieux) to stop the antimicrobial action of the antimicrobial active matching the stagger of the inoculation. 2 μL of this solution was plated onto a TSA plate matching the stagger of the inoculation so that all samples are exposed to the neutralizer for the same period of time. The plate was incubated at 32.5° C. for 48 h. MBC concentration is taken as the lowest concentration of the antimicrobial active at which no visible colony growth is observed on the TSA plate.
# Enterobacter aerogenes = assay: Minimum Biocidal Concentration (MBC) in suspension; type: cell-based; details: active in 0.5% MEA + 1.5% TEA alkaline composition, no horse serum, contact time 6 minutes; for MBC: Klebsiella aerogenes, 0.1 h, read-out: MBC (ppm) E. aerogenes
# Method: as §1, §2, §3, §4
Compound,pH [1],MBC [2],MBC (Enterobacter aerogenes),MBC (ppm) S. aureus [2],MBC (ppm) E. aerogenes (Enterobacter aerogenes)
[H]/N=C(\N/C(=N/[H])NCCCCCCNC(=N)NC(=N)Nc1ccc(Cl)cc1)Nc1ccc(Cl)cc1 [Chlorhexidine],11.2,50 µg/mL,50 µg/mL,–,–
N-alkyl dimethyl benzyl ammonium chloride,11.4,–,–,12.5 ppm,12.5 ppm
"CCCCCCCCCCCCN(CCCN)CCCN [N-(3-Aminopropyl)-N-dodecylpropane-1,3-diamine]",11.5,12.5 µg/mL,50 µg/mL,–,–
"CCCCCCCCN=c1ccn(CCCCCCCCCCn2ccc(=NCCCCCCCC)cc2)cc1 [Bispyridinium alkane, octenidine dihydrochloride]",11.4,3.13 µg/mL,12.5 µg/mL,–,–
